Columns and labels:
QR2 = target: T1, QR2 (Homo sapiens, UniProt P16083); conditions: literature statement; cited from earlier work
T1 sequence (P16083 1-231): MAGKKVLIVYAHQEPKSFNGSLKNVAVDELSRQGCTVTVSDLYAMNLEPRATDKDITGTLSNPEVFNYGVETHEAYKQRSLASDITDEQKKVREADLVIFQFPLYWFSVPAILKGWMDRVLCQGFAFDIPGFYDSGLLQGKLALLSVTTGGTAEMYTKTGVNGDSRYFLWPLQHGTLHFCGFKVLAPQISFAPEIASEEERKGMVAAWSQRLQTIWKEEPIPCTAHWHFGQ

rats [1] = assay: CTA protocol with NaCl: negative taste memory after QR2 inhibitor injection; assay type: in vivo, rat; conditions: n=8; for AI compared with vehicle-injected group: CTA with NaCl, Fisher's LSD test; for Aversion index (AI): CTA, 0.5% NaCl, LiCl 0.03M, inhibitor 10 mg/kg i.p. one hour before, mean+/-SEM
Protocol: (§1) Subjects—Adult male Wistar Hola rats (Harlan Laboratories, Jerusalem) within a weight range of 200-300 gr (corresponding to an age of 8 to 12 weeks) were used for this study. They were maintained on a 12 hour light/dark cycle and all experiments were carried out during the light cycle. Additionally, the rats had ad libtum access to food and water unless otherwise indicated. The procedures were performed in strict accordance with the University of Haifa regulations and the US National Institutes of Health guidelines (NIH publication number 8023).
(§2) The vehicle—In all of the experiments in which we utilized pharmacological agents they were prepared in physiological saline. Physiological saline was prepared in house by dissolving NaCl in DDW (0.9% w/v). The physiological saline was injected to the controls in all experiments in which the test group(s) was injected with a pharmacological agent. The same volume of the vehicle was injected as the pharmacological agent.
(§3) QR2 inhibitors—We used two inhibitors of QR2 activity, S29434 and S26695, obtained from Pharmacolgie Moleculaire et Cellulaire, Institut de Recherches Servier. The inhibitors were dissolved in dimethyl sulfoxide (DMSO) and then added to physiological saline. The final concentration of dimethyl sulfoxide in the physiological saline was 5%. These inhibitors were injected prior to the learning process intraperitoneally (i.p.) 10 mg/kg.
(§4) Aversion index—the aversion index is calculated by the following equation [(total water ingested/(novel taste liquid ingested+water ingested))*100].
Conditioned Taste Aversion (CTA)—Two groups of rats were deprived from water for a period of 24 hours. This was followed by 3 days of restriction were the rats received two pipettes each filled with 10 ml of water for 20 minutes each day. […] Forty minutes following the exposure to the novel liquid the rats in the experimental group received an injection of LiCl (prepared in double distilled water (DDW)) (2% bodyweight, intraperitoneally (i.p.)) and those in the control received an injection of physiological saline (2% bodyweight, i.p.).
M&M—We used three groups in this experiment, all of which were subjected to three days of water restriction. Following the three day water restriction period one group was injected with the vehicle; one group with S29434; one group with S26695. Then, one hour after the injections, all three groups were subjected to the CTA protocol: we gave them access to two pipettes containing 10 ml of 0.5% w/v NaCl each (a novel taste) for 20 minutes (in this experiment NaCl as the novel taste was used since CTA conducted with NaCl leads to a lower AI which prevents a ceiling effect from occurring and allows us to evaluate if the inhibitors generate an increase in learning and therefore a higher AI). […]

rats [2] = assay: LI-CTA protocol: positive taste memory after QR2 inhibitor injection; assay type: in vivo, rat; conditions: n=8; for Aversion index (AI): 0.1% saccharin, inhibitor 10 mg/kg i.p. one hour before pre-exposure, choice test three days after LiCl, mean+/-SEM; for AI compared with vehicle-injected groups (CTA and LI-CTA): Fisher's LSD post-hoc test
Protocol: as §1, §2, §3, §4
Conditioned Taste Aversion (CTA)—Two groups of rats were deprived from water for a period of 24 hours. This was followed by 3 days of restriction were the rats received two pipettes each filled with 10 ml of water for 20 minutes each day. On the fourth day both groups received two pipettes each filled with 10 ml of an unfamiliar tasting liquid, either saccharine (0.1% w/v) or NaCl (0.3% w/v), for 20 minutes. Forty minutes following the exposure to the novel liquid the rats in the experimental group received an injection of LiCl (prepared in double distilled water (DDW)) (2% bodyweight, intraperitoneally (i.p.)) and those in the control received an injection of physiological saline (2% bodyweight, i.p.).
LI-CTA learning paradigm. This paradigm presents the animal with a novel taste. The animal is then given 48 hours during which it will form a memory of the taste and will consider the taste to be a safe taste. The animal will then be presented with the taste again and then injected with LiCl in order to induce malaise. Normally when an animal is presented with a taste and then has malaise induced (CTA) the animal will form a very high aversion to that taste. […]

SMILES	QR2 inhibition (QR2)	AI compared with vehicle-injected group (rats [1])	Aversion index (AI) (rats [1])	Aversion index (AI) (rats [2])	AI compared with vehicle-injected groups (CTA and LI-CTA) (rats [2])
COc1ccc2[nH]cc(CCNC(C)=O)c2c1 [Melatonin]	inhibits QR2 activity				
Oc1ccc(/C=C/c2cc(O)cc(O)c2)cc1 [resveratrol]	efficiently inhibits QR2				
COc1ccc2c(n1)c(CCNC(=O)c1ccco1)c1n2Cc2cccnc2-1 [S29434, N-[2-(2-methoxy-6h-dipyrido[2,3-α:3,2-e]pyrrolizin-11-yl)ethyl]-2-furamide]		significantly higher AI	92%	56.16+/−6.15	significantly lower AI
CNS(=O)(=O)c1ccc2cccc(CCNC(C)=O)c2c1 [S26695, N-[2-(7-methylaminosulfonyl-1-naphthyl)ethyl]acetamide]		significantly higher AI	86.84+/−2.17	68.44+/−4.44	significantly lower AI

— US10676747B2, “Methods for improving cognitive function via modulation of quinone reductase 2” (Carmel-Haifa University Economic Corp. Ltd., priority 2014, dated 2020)
